In ChEMBL document CHEMBL3885881, “DrugMatrix”:

Species on record: Rattus norvegicus
Test: DrugMatrix - Regimen: Daily Repeat
Format: toxicity, organism-based, Sprague-Dawley
Set-up: regimen Daily Repeat, gender Male, age 6-8 weeks
Conditions: in vivo, po, route oral GAVAGE, […]; for ABSOLUTE BASOPHIL / BASOPHIL / ABSOLUTE EOSINOPHIL / ABSOLUTE LYMPHOCYTE / ABSOLUTE MONOCYTE / ABSOLUTE SEGMENTED NEUTROPHIL / EOSINOPHIL / ERYTHROCYTE COUNT / HEMATOCRIT / HEMOGLOBIN / LEUKOCYTE COUNT / LYMPHOCYTE / MEAN CORPUSCULAR HEMOGLOBIN / MEAN CORPUSCULAR HEMOGLOBIN CONCENTRATION / MEAN CORPUSCULAR VOLUME / MONOCYTE / NEUTROPHIL / NUCLEATED RED BLOOD CELLS / PLATELET COUNT: tissue Blood; for ALANINE AMINOTRANSFERASE / ALKALINE PHOSPHATASE / ASPARTATE AMINOTRANSFERASE / BLOOD UREA NITROGEN / CARBON DIOXIDE / CHLORIDE / CHOLESTEROL / CREATINE PHOSPHOKINASE / CREATININE / GLUCOSE / LACTATE DEHYDROGENASE / LIPASE / PHOSPHORUS / POTASSIUM / SODIUM / TOTAL BILIRUBIN: tissue Plasma
[1] = 0 mg/kg, 72 h, dose level Control, time 3 day
[2] = 0 mg/kg, 120 h, dose level Control, time 5 day
[3] = 0.3 mg/kg, 72 h, dose level Low, time 3 day
[4] = 0.3 mg/kg, 120 h, dose level Low, time 5 day
[5] = 27 mg/kg, 72 h, dose level M1, time 3 day
[6] = 54 mg/kg, 72 h, dose level High, time 3 day

Structure (SMILES): CN(Cc1cnc2nc(N)nc(N)c2n1)c1ccc(C(=O)N[C@@H](CCC(=O)O)C(=O)O)cc1 [METHOTREXATE]
- ABSOLUTE BASOPHIL [1]: 0 CELLS/uL
- BASOPHIL [1]: 0%
- ABSOLUTE BASOPHIL [2]: 0 CELLS/uL
- ABSOLUTE EOSINOPHIL [2]: 331.5 CELLS/uL
- BASOPHIL [2]: 0%
- ABSOLUTE BASOPHIL [3]: 0 CELLS/uL
- ABSOLUTE EOSINOPHIL [3]: 94 CELLS/uL
- ABSOLUTE LYMPHOCYTE [3]: 7221.33 CELLS/uL
- ABSOLUTE MONOCYTE [3]: 172.67 CELLS/uL
- ABSOLUTE SEGMENTED NEUTROPHIL [3]: 2345.33 CELLS/uL
- BASOPHIL [3]: 0%
- EOSINOPHIL [3]: 0.67%
- ERYTHROCYTE COUNT [3]: 5.78 x10E6/uL
- HEMATOCRIT [3]: 37.2%
- HEMOGLOBIN [3]: 14.3 G/DL
- LEUKOCYTE COUNT [3]: 9.83 x10E3/uL
- LYMPHOCYTE [3]: 70%
- MEAN CORPUSCULAR HEMOGLOBIN [3]: 24.77 pg
- MEAN CORPUSCULAR HEMOGLOBIN CONCENTRATION [3]: 38.47 G/DL
- MEAN CORPUSCULAR VOLUME [3]: 64.33 fL
- MONOCYTE [3]: 1.67%
- NEUTROPHIL [3]: 27.67%
- NUCLEATED RED BLOOD CELLS [3]: 0 /100WBC
- PLATELET COUNT [3]: 997.67 x10E3/uL
- ALANINE AMINOTRANSFERASE [3]: 69 u/L
- ALKALINE PHOSPHATASE [3]: 597.33 u/L
- ASPARTATE AMINOTRANSFERASE [3]: 118.33 u/L
- BLOOD UREA NITROGEN [3]: 12.33 mg/dL
- CARBON DIOXIDE [3]: 20 mmol/L
- CHLORIDE [3]: 100.67 MEQ/L
- CHOLESTEROL [3]: 42.33 mg/dL
- CREATINE PHOSPHOKINASE [3]: 1224.33 u/L
- CREATININE [3]: 0.11 mg/dL
- GLUCOSE [3]: 237.67 mg/dL
- LACTATE DEHYDROGENASE [3]: 410.67 u/L
- LIPASE [3]: 11.67 u/L
- PHOSPHORUS [3]: 14.63 mg/dL
- POTASSIUM [3]: 6.55 MEQ/L
- SODIUM [3]: 141.9 MEQ/L
- TOTAL BILIRUBIN [3]: 0.13 mg/dL
- ABSOLUTE BASOPHIL [4]: 0 CELLS/uL
- ABSOLUTE EOSINOPHIL [4]: 124.67 CELLS/uL
- ABSOLUTE LYMPHOCYTE [4]: 6857.33 CELLS/uL
- ABSOLUTE MONOCYTE [4]: 225.67 CELLS/uL
- ABSOLUTE SEGMENTED NEUTROPHIL [4]: 959 CELLS/uL
- BASOPHIL [4]: 0%
- EOSINOPHIL [4]: 1.33%
- ERYTHROCYTE COUNT [4]: 5.9 x10E6/uL
- HEMATOCRIT [4]: 37.7%
- HEMOGLOBIN [4]: 14.3 G/DL
- LEUKOCYTE COUNT [4]: 8.17 x10E3/uL
- LYMPHOCYTE [4]: 82.33%
- MEAN CORPUSCULAR HEMOGLOBIN [4]: 24.27 pg
- MEAN CORPUSCULAR HEMOGLOBIN CONCENTRATION [4]: 37.93 G/DL
- MEAN CORPUSCULAR VOLUME [4]: 63.93 fL
- MONOCYTE [4]: 2.67%
- NEUTROPHIL [4]: 13.67%
- NUCLEATED RED BLOOD CELLS [4]: 0 /100WBC
- PLATELET COUNT [4]: 1097 x10E3/uL
- ALANINE AMINOTRANSFERASE [4]: 52.33 u/L
- ALKALINE PHOSPHATASE [4]: 510 u/L
- ASPARTATE AMINOTRANSFERASE [4]: 80.33 u/L
- BLOOD UREA NITROGEN [4]: 10 mg/dL
- CARBON DIOXIDE [4]: 24 mmol/L
- CHLORIDE [4]: 102.33 MEQ/L
- CHOLESTEROL [4]: 38 mg/dL
- CREATINE PHOSPHOKINASE [4]: 556.67 u/L
- CREATININE [4]: 0.1 mg/dL
- GLUCOSE [4]: 165.67 mg/dL
- LACTATE DEHYDROGENASE [4]: 131.67 u/L
- LIPASE [4]: 6.67 u/L
- PHOSPHORUS [4]: 12.1 mg/dL
- POTASSIUM [4]: 6.83 MEQ/L
- SODIUM [4]: 142.1 MEQ/L
- TOTAL BILIRUBIN [4]: 0.2 mg/dL
- ABSOLUTE BASOPHIL [5]: 0 CELLS/uL
- ABSOLUTE EOSINOPHIL [5]: 0 CELLS/uL
- BASOPHIL [5]: 0%
- EOSINOPHIL [5]: 0%
- NUCLEATED RED BLOOD CELLS [5]: 0 /100WBC
- CREATININE [5]: 0.19 mg/dL
- TOTAL BILIRUBIN [5]: 0.13 mg/dL
- ABSOLUTE BASOPHIL [6]: 0 CELLS/uL
- ABSOLUTE EOSINOPHIL [6]: 68 CELLS/uL
- ABSOLUTE LYMPHOCYTE [6]: 3442 CELLS/uL
- ABSOLUTE MONOCYTE [6]: 42 CELLS/uL
- ABSOLUTE SEGMENTED NEUTROPHIL [6]: 1648 CELLS/uL
- BASOPHIL [6]: 0%
- EOSINOPHIL [6]: 1%
- ERYTHROCYTE COUNT [6]: 7.17 x10E6/uL
- HEMATOCRIT [6]: 43.93%
- HEMOGLOBIN [6]: 17.27 G/DL
- LEUKOCYTE COUNT [6]: 5.2 x10E3/uL
- LYMPHOCYTE [6]: 69%
- MEAN CORPUSCULAR HEMOGLOBIN [6]: 24.07 pg
- MEAN CORPUSCULAR HEMOGLOBIN CONCENTRATION [6]: 39.3 G/DL
- MEAN CORPUSCULAR VOLUME [6]: 61.23 fL
- MONOCYTE [6]: 1%
- NEUTROPHIL [6]: 29%
- NUCLEATED RED BLOOD CELLS [6]: 0 /100WBC
- PLATELET COUNT [6]: 1149 x10E3/uL
- ALANINE AMINOTRANSFERASE [6]: 26.33 u/L
- ALKALINE PHOSPHATASE [6]: 163 u/L
- ASPARTATE AMINOTRANSFERASE [6]: 107 u/L
- BLOOD UREA NITROGEN [6]: 23 mg/dL
- CARBON DIOXIDE [6]: 18.67 mmol/L
- CHLORIDE [6]: 94.5 MEQ/L
- CHOLESTEROL [6]: 36 mg/dL
- CREATINE PHOSPHOKINASE [6]: 1782.67 u/L
- CREATININE [6]: 0.13 mg/dL
- GLUCOSE [6]: 207.67 mg/dL
- LACTATE DEHYDROGENASE [6]: 368.67 u/L
- LIPASE [6]: 37 u/L
- PHOSPHORUS [6]: 11.03 mg/dL
- POTASSIUM [6]: 5.79 MEQ/L
- SODIUM [6]: 137 MEQ/L
- TOTAL BILIRUBIN [6]: 0.2 mg/dL
